According to patent US10947271B2, “Antibacterial agents” (THE UNIVERSITY OF QUEENSLAND, priority 2014, dated 2021):

What was measured:
Assay type in all cases: cell-based
Details in all cases: 24 h incubation, visual reading
[1] = test system: Enterococcus faecium MDR Van A ATCC 51559; assay: MIC assay, E. faecium MDR Van A ATCC 51559
Outline: (§1)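 Mid-log cultures in MHB were added at 5×10e5 CFU/mL to compounds diluted twofold from 8 to 0.003 μg/ml. Visual inspection after 24 h incubation at 37° C. gave the MIC, the lowest concentration without visible growth.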

[2] = test system: Streptococcus pneumoniae MDR ATCC 700677; assay: MIC assay, S. pneumoniae MDR ATCC 700677
Outline: as §1

[3] = test system: Staphylococcus aureus MRSA ATCC 43300; assay: MIC assay, S. aureus MRSA ATCC 43300
Outline: as §1

| SMILES | Minimum Inhibitory Concentration (MIC) E. faecium ATCC51559 [1] | Minimum Inhibitory Concentration (MIC) S. pneumoniae ATCC 700677 [2] | Minimum Inhibitory Concentration (MIC) Staph. aureus ATCC43300 [3] |
| --- | --- | --- | --- |
| CCCCCOc1ccc(C(=O)N[C@@H](CCCCN)C(=O)N[C@@H](CCCCN)C(=O)N[C@@H](CCCCNC(=O)[C@H]2NC(=O)[C@H]3NC(=O)[C@H](NC(=O)[C@@H]4NC(=O)[C@H](CC(N)=O)NC(=O)[C@H](NC(=O)[C@@H](CC(C)C)NC)[C@H](O)c5ccc(c(Cl)c5)Oc5cc4cc(c5O[C@@H]4O[C@H](CO)[C@@H](O)[C@H](O)[C@H]4O[C@H]4C[C@](C)(N)[C@H](O)[C@H](C)O4)Oc4ccc(cc4Cl)[C@H]3O)c3ccc(O)c(c3)-c3c(O)cc(O)cc32)C(=O)O)cc1 [MCC_005504] | x (x = >4) | xxx (xxx = 0.1-<1) | xxx (xxx = 0.1-<1) |
| CCCCCOc1ccc(C(=O)NCCCCC(NC(=O)c2ccc(OCCCCC)cc2)C(=O)NC(CCCCN)C(=O)NC(CCCCNC(=O)C2NC(=O)C3NC(=O)C(NC(=O)C4NC(=O)C(CC(N)=O)NC(=O)C(NC(=O)C(CC(C)C)NC)C(O)c5ccc(c(Cl)c5)Oc5cc4cc(c5OC4OC(CO)C(O)C(O)C4OC4CC(C)(N)C(O)C(C)O4)Oc4ccc(cc4Cl)C3O)c3ccc(O)c(c3)-c3c(O)cc(O)cc32)C(=O)NC)cc1 (stereo not drawn) [MCC_000502] | xxx (xxx = 0.1-<1) | xxxxx (xxxxx = <0.01) | xxxxx (xxxxx = <0.01) |
| CCCCCCCCCCCC(=O)N[C@@H](CCCCN)C(=O)N[C@@H](CCCCNC(=O)[C@H]1NC(=O)[C@H]2NC(=O)[C@H](NC(=O)[C@@H]3NC(=O)[C@H](CC(N)=O)NC(=O)[C@H](NC(=O)[C@@H](CC(C)C)NC)[C@H](O)c4ccc(c(Cl)c4)Oc4cc3cc(c4O[C@@H]3O[C@H](CO)[C@@H](O)[C@H](O)[C@H]3O[C@H]3C[C@](C)(N)[C@H](O)[C@H](C)O3)Oc3ccc(cc3Cl)[C@H]2O)c2ccc(O)c(c2)-c2c(O)cc(O)cc21)C(N)=O [MCC_005063] | xx (xx = 1-4) | xxxxx (xxxxx = <0.01) | xxxxx (xxxxx = <0.01) |
| CNC(=O)C(CCCCNC(=O)C1NC(=O)C2NC(=O)C(NC(=O)C3NC(=O)C(CC(N)=O)NC(=O)C(NC(=O)C(CC(C)C)NC)C(O)c4ccc(c(Cl)c4)Oc4cc3cc(c4OC3OC(CO)C(O)C(O)C3OC3CC(C)(N)C(O)C(C)O3)Oc3ccc(cc3Cl)C2O)c2ccc(O)c(c2)-c2c(O)cc(O)cc21)NC(=O)C(CCCCN)NC(=O)C(CCCCN)NC(=O)C(CCCCN)NC(=O)C(CCCCNC(=O)c1ccc(Oc2ccccc2)cc1)NC(=O)c1ccc(Oc2ccccc2)cc1 (stereo not drawn) [MCC_000316] | xxxx (xxxx = 0.01-<0.1) | xxxxx (xxxxx = <0.01) | xxxxx (xxxxx = <0.01) |
| CNC(=O)C(CCCCNC(=O)C1NC(=O)C2NC(=O)C(NC(=O)C3NC(=O)C(CC(N)=O)NC(=O)C(NC(=O)C(CC(C)C)NC)C(O)c4ccc(c(Cl)c4)Oc4cc3cc(c4OC3OC(CO)C(O)C(O)C3OC3CC(C)(N)C(O)C(C)O3)Oc3ccc(cc3Cl)C2O)c2ccc(O)c(c2)-c2c(O)cc(O)cc21)NC(=O)C(CCCCN)NC(=O)C(CCCCNC(=O)CCCOc1ccccc1)NC(=O)CCCOc1ccccc1 (stereo not drawn) [MCC_000506] | x (x = >4) | xxx (xxx = 0.1-<1) | xxx (xxx = 0.1-<1) |
| CCCCCCCCCCC(=O)N[C@@H](CCCCN)C(=O)NCCCNC(=O)[C@H]1NC(=O)[C@H]2NC(=O)[C@H](NC(=O)[C@@H]3NC(=O)[C@H](CC(N)=O)NC(=O)[C@H](NC(=O)[C@@H](CC(C)C)NC)[C@H](O)c4ccc(c(Cl)c4)Oc4cc3cc(c4O[C@@H]3O[C@H](CO)[C@@H](O)[C@H](O)[C@H]3O[C@H]3C[C@](C)(N)[C@H](O)[C@H](C)O3)Oc3ccc(cc3Cl)[C@H]2O)c2ccc(O)c(c2)-c2c(O)cc(O)cc21 [MCC_005198] | xx (xx = 1-4) | xxxx (xxxx = 0.01-<0.1) | xxxx (xxxx = 0.01-<0.1) |
| CCCCCCCCCCCCCC(=O)N[C@@H](CCCN)C(=O)N[C@@H](CCCN)C(=O)NCC(=O)NCCNC(=O)[C@H]1NC(=O)[C@H]2NC(=O)[C@H](NC(=O)[C@@H]3NC(=O)[C@H](CC(N)=O)NC(=O)[C@H](NC(=O)[C@@H](CC(C)C)NC)[C@H](O)c4ccc(c(Cl)c4)Oc4cc3cc(c4O[C@@H]3O[C@H](CO)[C@@H](O)[C@H](O)[C@H]3O[C@H]3C[C@](C)(N)[C@H](O)[C@H](C)O3)Oc3ccc(cc3Cl)[C@H]2O)c2ccc(O)c(c2)-c2c(O)cc(O)cc21 [MCC_000228] | xxxx (xxxx = 0.01-<0.1) | xxxxx (xxxxx = <0.01) | xxxxx (xxxxx = <0.01) |

The remaining lines, values ahead:

| Minimum Inhibitory Concentration (MIC) E. faecium ATCC51559 [1] | Minimum Inhibitory Concentration (MIC) S. pneumoniae ATCC 700677 [2] | Minimum Inhibitory Concentration (MIC) Staph. aureus ATCC43300 [3] | SMILES |
| --- | --- | --- | --- |
| xxx (xxx = 0.1-<1) | xxxxx (xxxxx = <0.01) | xxxxx (xxxxx = <0.01) | CNC(=O)C(CCCCNC(=O)C1NC(=O)C2NC(=O)C(NC(=O)C3NC(=O)C(CC(N)=O)NC(=O)C(NC(=O)C(CC(C)C)NC)C(O)c4ccc(c(Cl)c4)Oc4cc3cc(c4OC3OC(CO)C(O)C(O)C3OC3CC(C)(N)C(O)C(C)O3)Oc3ccc(cc3Cl)C2O)c2ccc(O)c(c2)-c2c(O)cc(O)cc21)NC(=O)C(CCCCN)NC(=O)C(CCCCN)NC(=O)CCCCCCCCCCCc1ccccc1 (stereo not drawn) [MCC_000511] |
| x (x = >4) | xxx (xxx = 0.1-<1) | xxx (xxx = 0.1-<1) | CCCCCCCCC(=O)NC(CCCCN)C(=O)NC(CCCCN)C(=O)NC(CCCCNC(=O)C1NC(=O)C2NC(=O)C(NC(=O)C3NC(=O)C(CC(N)=O)NC(=O)C(NC(=O)C(CC(C)C)NC)C(O)c4ccc(c(Cl)c4)Oc4cc3cc(c4OC3OC(CO)C(O)C(O)C3OC3CC(C)(N)C(O)C(C)O3)Oc3ccc(cc3Cl)C2O)c2ccc(O)c(c2)-c2c(O)cc(O)cc21)C(=O)NC (stereo not drawn) [MCC_000491] |
| xxxxx (xxxxx = <0.01) | xxxxx (xxxxx = <0.01) | xxxxx (xxxxx = <0.01) | CCCCCCCCCCCCCC(=O)NC(CCCCN)C(=O)NC(CCCCN)C(=O)NC(CCCCN)C(=O)NC(CCCCNC(=O)C1NC(=O)C2NC(=O)C(NC(=O)C3NC(=O)C(CC(N)=O)NC(=O)C(NC(=O)C(CC(C)C)NC)C(O)c4ccc(c(Cl)c4)Oc4cc3cc(c4OC3OC(CO)C(O)C(O)C3OC3CC(C)(N)C(O)C(C)O3)Oc3ccc(cc3Cl)C2O)c2ccc(O)c(c2)-c2c(O)cc(O)cc21)C(=O)OC (stereo not drawn) [MCC_000635] |
| xx (xx = 1-4) | xxxxx (xxxxx = <0.01) | xxxxx (xxxxx = <0.01) | CCCCCCCCCCCC(=O)NC(CCCCN)C(=O)NC(CCCCN)C(=O)NC(CCCCNC(=O)C1NC(=O)C2NC(=O)C(NC(=O)C3NC(=O)C(CC(N)=O)NC(=O)C(NC(=O)C(CC(C)C)NC)C(O)c4ccc(c(Cl)c4)Oc4cc3cc(c4OC3OC(CO)C(O)C(O)C3OC3CC(C)(N)C(O)C(C)O3)Oc3ccc(cc3Cl)C2O)c2ccc(O)c(c2)-c2c(O)cc(O)cc21)C(=O)NC (stereo not drawn) [MCC_000493] |
